Assay results from patent publication US7868005B2, “Pyrazinyl substituted piperazine-piperidines with CXCR3 antagonist activity” (Schering Corporation, priority 2005, dated 2011).

What follows are compounds tested against T1, human CXCR3 (N-delta 4) (Homo sapiens, UniProt P49682) (assay: Human CXCR3 (N-delta 4) Scintillation Proximity Assay (SPA), [125I] IP-10 binding to Ba/F3-hCXCR3 membranes). Details: IC50 rating, Table 1; read-out: IC50.
T1 construct: CD8 leader (N); Flag; expressed in transfected cells; membranes prepared
T1 sequence (P49682 5-368 limits assumed): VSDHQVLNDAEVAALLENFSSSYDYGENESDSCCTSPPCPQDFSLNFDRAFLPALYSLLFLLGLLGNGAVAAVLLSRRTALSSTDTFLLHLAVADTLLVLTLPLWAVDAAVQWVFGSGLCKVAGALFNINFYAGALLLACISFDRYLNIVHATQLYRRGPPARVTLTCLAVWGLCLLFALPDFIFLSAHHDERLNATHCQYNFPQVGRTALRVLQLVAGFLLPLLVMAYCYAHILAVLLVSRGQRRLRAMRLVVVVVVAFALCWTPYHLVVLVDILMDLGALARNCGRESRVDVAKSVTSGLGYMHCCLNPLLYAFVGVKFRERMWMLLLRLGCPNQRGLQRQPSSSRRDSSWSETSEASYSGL
For CC[C@H]1CN(c2nc(N)c(C(=O)NCCO)nc2Cl)CCN1C1CCN(Cc2ccc(Cl)cc2N2CC[C@@H](O)C2)CC1 [compound 141], the IC50 was < 25 nM.
With CC[C@H]1CN(c2nc(N)c(C(=O)NCCO)nc2Cl)CCN1C1CCN(Cc2ccc(Cl)cc2C(=O)OC)CC1 [compound 142] the IC50 was < 25 nM.
In the case of CC[C@H]1CN(c2nc(N)c(C(=O)NCCO)nc2Cl)CCN1C1CCN(Cc2cc(F)c(Cl)cc2OCCOC)CC1 [compound 143], the IC50 is reported as < 25 nM.
With CC[C@H]1CN(c2nc(N)c(C(=O)NCCO)nc2Cl)CCN1C1CCN(Cc2ccc(C#CC(C)(C)O)cc2)CC1 [compound 144] the IC50 was < 25 nM.
With CC[C@H]1CN(c2nc(N)c(C(=O)NCCO)nc2Cl)CCN1C1CCN(Cc2ccc(Cl)cc2C(C)(C)O)CC1 [compound 145] the IC50 was < 25 nM.
For CC[C@H]1CN(c2nc(N)c(C(=O)NCCO)nc2Cl)CCN1C1CCN(Cc2ccc(C#N)cc2OCC(=O)NCCO)CC1 [compound 146], the IC50 was < 25 nM.
For CC[C@H]1CN(c2nc(N)c(C(=O)NCCO)nc2Cl)CCN1C1CCN(Cc2ccc(Cl)cc2OCCNS(=O)(=O)N(C)C)CC1 [compound 147], the IC50 was < 25 nM.
CCNC(=O)NCCC(c1ccc(Cl)cc1)N1CCC(N2CCN(c3nc(N)c(C(=O)NCCO)nc3Cl)C[C@@H]2CC)CC1 (some centres unmarked) [compound 148] was tested, and the IC50 was < 25 nM.
In the case of CC[C@H]1CN(c2nc(N)c(C(=O)NCCO)nc2Cl)CCN1C1CCN(Cc2ccc(Cl)cc2OCC(N)=O)CC1 [compound 149], the IC50 is reported as < 25 nM.
With CC[C@H]1CN(c2nc(N)c(C(=O)NCCO)nc2Cl)CCN1C1CCN([C@@H](C(=O)OC)c2ccc(Cl)cc2)CC1 [compound 150] the IC50 was < 25 nM.
CC[C@H]1CN(c2nc(N)c(C(=O)NCCO)nc2Cl)CCN1C1CCN(Cc2ccc(Cl)cc2C(=N)NC)CC1 [compound 151] was tested, and the IC50 was < 25 nM.
In the case of CC[C@H]1CN(c2nc(N)c(C(=O)NCCO)nc2Cl)CCN1C1CCN(Cc2ccc(OC)cc2O)CC1 [compound 152], the IC50 is reported as < 25 nM.
For CC[C@H]1CN(c2nc(N)c(C(=O)NCCO)nc2Cl)CCN1C1CCN([C@H](CO)c2ccc(C#N)cc2)CC1 [compound 153], the IC50 was < 25 nM.
For CC[C@H]1CN(c2nc(N)c(C(=O)NCCO)nc2Cl)CCN1C1CCN(Cc2ccc(-c3csnn3)cc2)CC1 [compound 154], the IC50 was < 25 nM.
With CC[C@H]1CN(c2nc(N)c(C(=O)NCCO)nc2Cl)CCN1C1CCN(Cc2ccc(Cl)c(F)c2O)CC1 [compound 155] the IC50 was < 25 nM.
For CC[C@H]1CN(c2nc(N)c(C(=O)NCCO)nc2Cl)CCN1C1CCN(Cc2ccc(Cl)cc2NC(N)=O)CC1 [compound 156], the IC50 was < 25 nM.
CCNC(=O)Nc1cc(Cl)ccc1CN1CCC(N2CCN(c3nc(N)c(C(=O)NCCO)nc3Cl)C[C@@H]2CC)CC1 [compound 157] was tested, and the IC50 was < 25 nM.
With CC[C@H]1CN(c2nc(N)c(C(=O)NCCO)nc2Cl)CCN1C1CCN(Cc2ccc(F)cc2F)CC1 [compound 158] the IC50 was < 25 nM.
With CC[C@H]1CN(c2nc(N)c(C(=O)NCCO)nc2Cl)CCN1C1CCN(Cc2cc(F)c(Cl)cc2O)CC1 [compound 159] the IC50 was < 25 nM.
CC[C@H]1CN(c2nc(N)c(C(=O)NCCO)nc2Cl)CCN1C1CCN(Cc2ccc(Cl)cc2C(=O)NC)CC1 [compound 160] was tested, and the IC50 was < 25 nM.
In the case of CC[C@H]1CN(c2nc(N)c(C(=O)NCCO)nc2Cl)CCN1C1CCN(Cc2ccc(Cl)cc2-c2nnn[nH]2)CC1 [compound 161], the IC50 is reported as < 25 nM.
With CC[C@H]1CN(c2nc(N)c(C(=O)NCCO)nc2Cl)CCN1C1CCN(Cc2ccc(Oc3ccc(F)cc3)cc2)CC1 [compound 162] the IC50 was < 25 nM.
With CC[C@H]1CN(c2nc(N)c(C(=O)NCCO)nc2Cl)CCN1C1CCN(Cc2ccc(C#N)cc2OCCOC)CC1 [compound 163] the IC50 was < 25 nM.
With CC[C@H]1CN(c2nc(N)c(C(=O)NCCO)nc2Cl)CCN1C1CCN(Cc2ccc(Cl)cc2C(=O)O)CC1 [compound 164] the IC50 was < 25 nM.
In the case of CC[C@H]1CN(c2nc(N)c(C(=O)NCCO)nc2Cl)CCN1C1CCN(Cc2cc(F)c(Cl)cc2OCCNS(C)(=O)=O)CC1 [compound 165], the IC50 is reported as < 25 nM.
For CC[C@H]1CN(c2nc(N)c(C(=O)NCCO)nc2Cl)CCN1C1CCN(Cc2ccc(OC(F)(F)F)cc2O)CC1 [compound 166], the IC50 was < 25 nM.
In the case of CC[C@H]1CN(c2nc(N)c(C(=O)NCCO)nc2Cl)CCN1C1CCN(Cc2ccc(Cl)cc2C2=NCCN2)CC1 [compound 167], the IC50 is reported as < 25 nM.
With CC[C@H]1CN(c2nc(N)c(C(=O)NCCO)nc2Cl)CCN1C1CCN(Cc2ccc(OC(F)(F)F)cc2OCCO)CC1 [compound 168] the IC50 was < 25 nM.
With CC[C@H]1CN(c2nc(N)c(C(=O)NCCO)nc2Cl)CCN1C1CCN(Cc2ccc(Cl)cc2OCCCO)CC1 [compound 169] the IC50 was < 25 nM.
For CC[C@H]1CN(c2nc(N)c(C(=O)NCCO)nc2Cl)CCN1C1CCN(C(CCO)c2ccc(Cl)cc2)CC1 (some centres unmarked) [compound 170], the IC50 was < 25 nM.
For CC[C@H]1CN(c2nc(N)c(C(=O)NCCO)nc2Cl)CCN1C1CCN(Cc2ccc(Cl)cc2-c2cnc(N)nc2)CC1 [compound 171], the IC50 was < 25 nM.
With CC[C@H]1CN(c2nc(N)c(C(=O)NCCO)nc2Cl)CCN1C1CCN(Cc2ccc(F)c(F)c2N2CC[C@H](O)C2)CC1 [compound 172] the IC50 was < 25 nM.
In the case of CC[C@H]1CN(c2nc(N)c(C(=O)NCCO)nc2Cl)CCN1C1CCN(Cc2ccc(C#N)cc2OCCO)CC1 [compound 173], the IC50 is reported as < 25 nM.
In the case of CC[C@H]1CN(c2nc(N)c(C(=O)NCCO)nc2Cl)CCN1C1CCN(Cc2ccc(OC(F)(F)F)cc2OCC(N)=O)CC1 [compound 174], the IC50 is reported as < 25 nM.
CC[C@H]1CN(c2nc(N)c(C(=O)NCCO)nc2Cl)CCN1C1CCN([C@@H](C(=O)OC)c2ccc(C#N)cc2)CC1 [compound 175] was tested, and the IC50 was < 25 nM.
CC[C@H]1CN(c2nc(N)c(C(=O)NCCO)nc2Cl)CCN1C1CCN(Cc2ccc(Cl)cc2C(=O)NCCO)CC1 [compound 176] was tested, and the IC50 was < 25 nM.
Work on CC[C@H]1CN(c2nc(N)c(C(=O)NCCO)nc2Cl)CCN1C1CCN([C@@H](C(=O)O)c2ccc(Cl)cc2)CC1 [compound 177] yielded an IC50 of 25 to 100 nM.
In the case of CC[C@H]1CN(c2nc(N)c(C(=O)NCCO)nc2Cl)CCN1C1CCN(Cc2ccc(F)c(F)c2O)CC1 [compound 178], the IC50 is reported as 25 to 100 nM.
Compound CC[C@H]1CN(c2nc(N)c(C(=O)NCCO)nc2Cl)CCN1C1CCN(C(CCNC(C)=O)c2ccc(Cl)cc2)CC1 (some centres unmarked) [compound 179] has an IC50 of 25 to 100 nM.
CC[C@H]1CN(c2nc(N)c(C(=O)NCCO)nc2Cl)CCN1C1CCN(Cc2ccc(C#N)cc2O)CC1 [compound 180] was tested, and the IC50 was 25 to 100 nM.
In the case of CC[C@H]1CN(c2nc(N)c(C(=O)NCCO)nc2Cl)CCN1C1CCN(Cc2cc(F)c(F)c(F)c2O)CC1 [compound 181], the IC50 is reported as 25 to 100 nM.
For CC[C@H]1CN(c2nc(N)c(C(=O)NCCO)nc2Cl)CCN1C1CCN([C@H](CO)c2ccc(F)c(F)c2)CC1 [compound 182], the IC50 was 25 to 100 nM.
With CC[C@H]1CN(c2nc(N)c(C(=O)NCCO)nc2Cl)CCN1C1CCN(Cc2ccc(F)c(F)c2N2CCOCC2)CC1 [compound 183] the IC50 was 25 to 100 nM.
For CC[C@H]1CN(c2nc(N)c(C(=O)NCCO)nc2Cl)CCN1C1CCN(C(C(=O)O)c2ccc(Cl)cc2)CC1 (some centres unmarked) [compound 184], the IC50 was 25 to 100 nM.
For CC[C@H]1CN(c2nc(N)c(C(=O)NCCO)nc2Cl)CCN1C1CCN([C@@H](C(=O)OC)c2ccc(F)c(F)c2)CC1 [compound 185], the IC50 was 25 to 100 nM.
For CC[C@H]1CN(c2nc(N)c(C(=O)NCCO)nc2Cl)CCN1C1CCN(Cc2c(O)cc(Cl)cc2Cl)CC1 [compound 186], the IC50 was 25 to 100 nM.
With CC[C@H]1CN(c2nc(N)c(C(=O)NCCO)nc2Cl)CCN1C1CCN(C(CCOC)c2ccc(Cl)cc2)CC1 (some centres unmarked) [compound 187] the IC50 was 25 to 100 nM.
